Where two headings read alike, the source gives them in different places.
Tests used:
[1] = Procedure: (§1) Plasma from 9 individual male fish (500 µL/individual) was pooled to yield 3 samples for PPCP analysis. […] Plasma from 6 individual carp (2.3–3.5 g) from each location was selected for PPCP analysis. […] Plasma samples were frozen (−80 °C) until analysis.
(§2) A total of 20 fish plasma samples from the pooled caged fish (7) and the wild fish (13) along with 12 water samples were selected for analysis. […] A full list of analytes is provided in Supplementary Information. Mass labelled^13C-, or deuterated surrogate internal standards were used for quantification of all analytes via the isotope dilution/surrogate standard quantitation method. Prior to extraction and/or clean-up procedures, aqueous samples were adjusted to pH 2.0, spiked with extraction surrogate standards, then adjusted to pH 4 using tetrasodium ethylenediamine-tetraacetate dihydrate. Plasma samples (2.3–2.5 g) were spiked with extraction surrogate standards, sonicated with 20 mL acetonitrile, then diluted with ultra-pure water to 200 mL. The extracts were cleaned up by solid phase extraction using Oasis HLB cartridges (Waters Ltd. Mississauga ON), filtered, and analyzed by liquid chromatography-electrospray ionization-tandem mass spectrometry (LC/ESI-MS/MS) in positive or negative ionization mode. The analysis of the complete list of analytes (SI Table S1) required a total of five instrumental runs.

[2] = in vivo; settings: goldfish (Carassius auratus), in vivo, plasma concentration
Description: Cages were visited weekly, and fish (13/cage) were fed during the visits (20 g/cage). All animal experiments were in accordance with CCAC guidance and approved by the GLLFAS-WSTD Animal Care Committee (Government of Canada). Further details on the caging and preparation of the fish and animal care protocols are provided in Simmons et al.[32]. […] A fourth site, Jordan Harbour (JH), a widening of 20 Mile Creek adjacent to Lake Ontario near Jordan ON, served as a reference site. Mass and fork length were measured and recorded. Plasma collection and storage is described in the SI. Plasma of caged goldfish was divided for proteome, metabolome and PPCP analysis. Due to limited volumes, pooled samples of plasma from 25 individual fish (50 µL/individual) was pooled to yield one sample from at each location for PPCP analysis.
as §2
(§3) Quality assurance steps included analysis of lab blanks for water and plasma along with matrix recovery spikes. […] Detection limits (DLs) were defined as lowest calibration level adjusted to the maximal sample size or 3 times the signal of the noise in the target channel converted to an equivalent sample, whichever was greater. […] Where analytes were detected in two or more samples of the same species or series of water samples, non-detect values were converted to ½ the DL value for reporting purposes.

[3] = for plasma concentration, CPM-C 01: Cootes carp 01, 2011, male; for Cootes carp plasma, range of concentrations: Cootes Paradise Marsh; for plasma concentration, carp, this study (mean) / plasma concentration, goldfish, this study (mean): Table S8
Procedure: as §1, §2, §3

[4] = cited from earlier work; for whole fish concentration, salmon: ref Meador et al. 18
[5] = set-up: method as in US EPA Chemistry Dashboard; settings: ref US EPA Chemistry Dashboard; cited from earlier work
[6] = cited from earlier work
[7] = ref Meador et al. 18; cited from earlier work
[8] = human; converted from µg/mL; ref Schulz et al.[56]; cited from earlier work
[9] = female, carp (Cyprinus carpio), in vivo
[10] = male, carp (Cyprinus carpio), in vivo
[11] = male, goldfish (Carassius auratus), in vivo
[12] = Jordan Harbour brown bullhead, wet weight
[13] = Cootes carp 2, Sep 27, 2011, male, wet weight
[14] = Cootes carp 10, Sep 28, 2011, female, wet weight
[15] = Cootes carp 13, Sep 28, 2011, female, wet weight
[16] = Cootes carp 20, 2011, male, wet weight
[17] = Cootes carp 36, Oct 3, 2011, female, wet weight

Row | Structure (SMILES) | plasma concentration, JH-BB [1, 12] | plasma concentration, CPM-C 01 ([3]; wet weight) | plasma concentration, CPM-C 2 [3, 13] | plasma concentration, CPM-C 10 [3, 14] | plasma concentration, CPM-C 13 [3, 15] | plasma concentration, CPM-C 20 [3, 16] | plasma concentration, CPM-C 36 [3, 17] | Carp plasma concentration, this study (range) ([3]; Table S7) | whole fish concentration, salmon [4] | log Kow [5] | Cootes carp plasma, range of concentrations [3] | plasma concentration, carp, this study (mean) [3] | plasma concentration, goldfish, this study (mean) [3] | whole fish concentration, sculpin [7] | also measured
1 | C[C@]12CCC(=O)C=C1CC[C@@H]1[C@@H]2[C@@H](O)C[C@@]2(C)[C@H]1CC[C@]2(O)C(=O)CO [Hydrocortisone] | – | – | – | – | – | – | – | – | – | – | – | – | – | – | plasma concentration, JH-BB ([1]; Brown Bullhead (Ameiurus nebulosus), in vivo): 187 ng/g; concentration at 21 days ([2]; CPM1 caged): 100 ng/g; concentration at 21 days ([2]; CPM2 caged): 107 ng/g; concentration at 21 days ([2]; CPM3 caged): 113 ng/g; concentration at 21 days ([2]; JH caged): 92.4 ng/g; plasma concentration, CPM-C 10 [3, 9]: 764 ng/g; plasma concentration, CPM-C 13 [3, 9]: 1010 ng/g; plasma concentration, CPM-C 36 [3, 9]: 875 ng/g; plasma concentration, JH-C 73 [3, 9]: 456 ng/g; plasma concentration, JH-C 75 [3, 9]: 1440 ng/g; plasma concentration, CPM-C 2 [3, 10]: 1010 ng/g; plasma concentration, CPM-C 20 [3, 10]: 210 ng/g; plasma concentration, JH-C 54 [3, 10]: 232 ng/g; plasma concentration, JH-C 74 [3, 10]: 242 ng/g; plasma concentration, JH-C 78 [3, 10]: 522 ng/g; plasma concentration, CPM wild-01 [3, 11]: 129 ng/g; plasma concentration, CPM wild-02 [3, 11]: 134 ng/g; plasma concentration, CPM wild-03 [3, 11]: 118 ng/g
2 | NCCC(Oc1ccc(C(F)(F)F)cc1)c1ccccc1 (stereo not drawn) [Norfluoxetine] | < 0.57 ng/g | 0.338 ng/g | 0.216 ng/g | 0.227 ng/g | 0.234 ng/g | 0.179 ng/g | 0.215 ng/g | 0.18 to 0.34 ng/g | – | – | – | – | – | – | concentration at 21 days ([2]; CPM1 caged, CPM1, 07-2014, pooled plasma, wet weight): 0.879 ng/g; concentration at 21 days ([2]; CPM2 caged, CPM2, 07-2014, pooled plasma, wet weight): 0.58 ng/g; concentration at 21 days ([2]; CPM3 caged, CPM3, 07-2014, pooled plasma, wet weight): 0.168 ng/g; concentration at 21 days ([2]; JH caged, Jordan Harbour reference site, 07-2014, pooled plasma, wet weight): < 0.413 ng/g; Goldfish plasma concentration, this study (range) ([3]; Table S7): 0.17 to 1.1 ng/g; plasma concentration, CPM wild-01 ([3]; wild goldfish sample 01, 2012, wet weight): 0.300 ng/g; plasma concentration, CPM wild-02 ([3]; wild goldfish sample 02, 2012, wet weight): 0.654 ng/g; plasma concentration, CPM wild-03 ([3]; wild goldfish sample 03, 2012, wet weight): 1.1 ng/g
3 | O=C(Nc1ccc(Cl)cc1)Nc1ccc(Cl)c(Cl)c1 [Triclocarban] | < 1.14 ng/g | 0.317 ng/g | 0.431 ng/g | 0.453 ng/g | 0.468 ng/g | 0.324 ng/g | 3.35 ng/g | 0.32 to 3.35 ng/g | 6.5 ng/g wet weight or ng/mL for plasma | 4.90 | 0.32 to 3.35 ng/g | 0.89 ng/g wet weight or ng/mL for plasma | < mdl | < mdl | Salmon (whole body) concentration ([4]; Table S7, ref Meador et al. (2016)): 6.5 ng/g; BAFP in carp plasma, median [6]: 6.9; plasma concentration, crucian carp & common carp ([6]; mean ± SD, ref Tanoue et al.16): 0.34±0.20 ng/g wet weight or ng/mL for plasma
4 | CCCCC(=O)N(Cc1ccc(-c2ccccc2-c2nnn[nH]2)cc1)[C@H](C(=O)O)C(C)C [Valsartan] | – | 0.422 ng/g | 1.23 ng/g | 0.605 ng/g | 0.625 ng/g | 0.431 ng/g | 0.570 ng/g | 0.42 to 1.23 ng/g | < mdl | 3.07 | 0.42 to 1.23 ng/g | 0.65 ng/g wet weight or ng/mL for plasma | < mdl | < mdl | Therapeutic "normal" blood-plasma/serum concentration [8]: ~800 to 6000 ng/mL; plasma concentration, JH-C 75 ([3]; Jordan Harbour carp 75, Nov 7, 2011, female, wet weight): < 1.2 ng/g

From publication PMC5717258, “Bioaccumulation of pharmaceuticals and personal care product chemicals in fish exposed to wastewater effluent in an urban wetland” (Scientific Reports, 2017)
